In the case of `COc1ccccc1-n1cnc2c(C(N)=O)nc(Nc3cccc(O)c3)nc21`, the melting point is reported as 155 to 157 °C.
Work on `CC(CBr)N1CCN(c2ccccn2)CC1` (stereo not drawn) yielded a melting point of 50 to 51 °C.
`COC(=O)c1c(C)nc2c(c(-c3ccccc3)nn2C)c1-c1ccc(F)cc1` showed a melting point of 142 to 144 °C.
For `CC(c1oc2ccccc2c(=O)c1-c1cccc(F)c1)n1nc(-c2ccco2)c2c(N)ncnc21` (stereo not drawn), the melting point was 234 to 236 °C.
`O=Cc1cccc2c1[nH]c1c3cc(Br)ccc3oc21` showed a melting point of 280 to 281 °C.
`C/C(=C\c1ccc(C(=O)O)cc1)c1ccc2c(c1)CCCCC2` showed a melting point of 198 °C.
In the case of `CCn1c2ccccc2c2cc3cccc(C=O)c3cc21`, the melting point is reported as 130 to 133 °C.
`Cc1cc(C)n2nc(C)cc2n1` gave a melting point of 70 to 73 °C.
Compound `CCSC(=S)N1C(CO)Cc2c([nH]c3ccccc23)C1CC` (stereo not drawn) has a melting point of 82 to 84 °C.
`NNc1c(S(=O)(=O)C(F)(F)F)cnn1-c1c(Cl)cc(C(F)(F)F)cc1Cl` gave a melting point of 154 °C.
Work on `COc1ccc(CC2=NC(C)(C)CO2)cc1[N+](=O)[O-]` yielded a melting point of 88 to 90 °C.
In the case of `CN1CCN(c2ccc(CCCC(=O)N3CCC(c4ccc(Cl)cc4)CC3)cc2)CC1`, the melting point is reported as 119 to 120 °C.
With `COc1cc2c(cc1OC)N(C)C(=O)CN=C2c1cccc(CO)c1` the melting point was 143 to 146 °C.
Work on `CC(=O)OCC1OC(n2cc(C=O)c3c(F)cccc32)C(OC(C)=O)C(OC(C)=O)C1OC(C)=O` (stereo not drawn) yielded a melting point of 190 to 192 °C.
`CC[C@@H](c1ccccc1)N(Cc1ccc(C(=O)NCC(=O)O)cc1)S(=O)(=O)c1ccc(Cl)cc1` gave a melting point of 136 to 139 °C.
`O=C1Nc2ccsc2C(=O)N2CC[C@@H]12` showed a melting point of 274 °C.
`CC1(C)CC(=O)c2c(nc(C3CCCC3)c(C(=O)c3ccc(C(F)(F)F)cc3)c2-c2ccsc2)C1` showed a melting point of 236 to 238 °C.
In the case of `OCc1c(Cl)nc(C2CCCC2)n1Cc1ccccc1`, the melting point is reported as 102 to 103 °C.
Work on `COC(=O)[C@H](O)[C@@H](O)C(C)C` yielded a melting point of 32 to 34 °C.
For `N=C(NCc1cccs1)NN=Cc1c(Cl)cccc1Cl`, the melting point was 135 to 137 °C.
Work on `Cc1cccc(-c2nc3ccccn3c2-c2ccnc(-c3ccc(OCc4cn(C)cn4)cc3)c2)n1` yielded a melting point of 120 °C.
Work on `O=C(Oc1ccccc1)N1Cc2ccccc2C(c2ccccc2)c2ccccc21` (stereo not drawn) yielded a melting point of 155 to 165 °C.
With `COc1ccc(CCN(C)CCCCc2ccc(NC(=O)c3cccc4c(=O)c5ccccc5[nH]c34)cc2)cc1OC` the melting point was 120 °C.
Work on `CNC(=O)NCCN(c1ccc(Cl)cc1Cc1c(F)cccc1F)S(=O)(=O)c1ccc(OC)c(OC)c1` yielded a melting point of 106 °C.
With `CC(=O)OC1(c2ccc(Cl)cc2)CCN(CCCC(=O)c2ccc(F)cc2)CC1` the melting point was 106 to 110 °C.
With `CCCC1=C(C(=O)OCC)C(c2cccc(C(F)(F)F)c2Cl)c2c[nH]nc2N1` (stereo not drawn) the melting point was 236 to 238 °C.
Work on `Cn1nc(C(F)(F)F)cc1Oc1cc(Oc2cc(C(F)(F)F)nn2C)nc(Oc2cc(C(F)(F)F)nn2C)c1` yielded a melting point of 130 °C.
With `COc1ccccc1NC(=O)Nc1ccc(N2CCN(C(=O)Nc3ccc(OCCO)cc3Cl)CC2)c(Cl)c1` the melting point was 173 to 175 °C.
Compound `CCCCOCCOC(=O)C1=C(C)NN=C(CC)C1c1cccc([N+](=O)[O-])c1` (stereo not drawn) has a melting point of 122 °C.
Work on `Cc1ccc(S(=O)(=O)N2CC(CO)(C(=O)O)C2)cc1` yielded a melting point of 148 to 150 °C.
For `CCCCc1nc(C(C)=O)c(C#N)n1Cc1ccc(-c2ccccc2C(=O)O)cc1`, the melting point was > 55 °C.
In the case of `CCC(Oc1cccc(C(F)F)c1Cl)C1=NCCN1` (stereo not drawn), the melting point is reported as 96 to 97 °C.
With `Cc1cc2nc3ccccc3sc-2c(Br)c1=O` the melting point was 190 °C.
With `CCOC(=O)c1ncn2c3cccc(Cl)c3c(=O)n(C)c12` the melting point was 248 to 254 °C.
Work on `CCNC=C(C(=O)OCC)C(=O)c1cc(F)c(F)c(C)c1F` yielded a melting point of 110 °C.
`Cc1nc2c(NC(=O)C(C)(C)C)c(C(O)C=Cc3ccccc3)ccn2c1C` (stereo not drawn) gave a melting point of 194 to 195 °C.
Work on `CON(C)C(=O)Nc1ccc(CN2OCCC(C)(C)C2=O)c(Cl)c1` yielded a melting point of 116 to 118 °C.
`CN1CCc2cc(Br)[nH]c2C(c2ccccc2)C1` (stereo not drawn) gave a melting point of 132 to 133 °C.
Work on `CCOc1nc2ccccc2nc1N(CC)C(=O)N1CCN(c2cc(OC)cc(OC)c2)CC1` yielded a melting point of 144 to 146 °C.
In the case of `COc1cc(-c2ccccc2)c(C)cc1CC(=O)O`, the melting point is reported as 127 to 128 °C.
`CSC(C[C@@H]1CC(=O)N1[Si](C)(C)C(C)(C)C)(SC)SC` showed a melting point of 61 to 62 °C.
Compound `O=C(O)C#Cc1c(Cl)cc(Cl)cc1Cl` has a melting point of 170 to 175 °C.
With `CC(C)(C)NS(=O)(=O)c1cccc2c1SC(C)(C)C2` the melting point was 103 to 105 °C.
For `Cc1ccc(S(=O)(=O)ON=C(C#N)c2ccccc2)cc1`, the melting point was 131 to 132 °C.
`CCCCCCCc1ccc(C(=O)c2ccc(C(=O)O)cc2)cc1` gave a melting point of 181 °C.
`COc1ccc(-c2ccc(Cl)cc2)cc1OC1CCCC1` gave a melting point of 88 to 91 °C.
`O=C(c1ccc(O)c(Cl)c1)c1ccc(Cl)cc1Cl` showed a melting point of 145 °C.
`CC(C)c1c(OCCNC(=O)OC(C)(C)C)noc1-c1cccs1` gave a melting point of 94 to 95 °C.

Reference: a melting point compilation (Tetko et al.; mined from patent text by program, amines drawn as free bases though some values may be those of a salt)
